In patent publication US20230111310A1, “CARBOXYLIC ACID DERIVATIVE-SUBSTITUTED IMINO ARYL COMPOUND, PREPARATION METHOD THEREFOR, HERBICIDAL COMPOSITION AND USE THEREOF” (Qingdao Kingagroot Chemical Compound Co., Ltd., priority 2020, published 2023):

What was measured:
Test in all cases: Weeding effect in post-emergence stage
Type in all cases: in vivo
Settings in all cases: fresh weight control rate level
[1] = test system: Setaria viridis
Method in brief: (§1)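 Read-out is growth control rate, counted 3 weeks post-spray and averaged over three repeats. Greenhouse plants at the 2-3 leaf stage received spray-tower application at 500, 250, 125, 60, 30, 15 or 7.5 g/ha, with methyl oleate EC (1.5 liter/ha) and Tween 80 added.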

[2] = test system: Alopecurus japonicus
Method in brief: as §1

[3] = test system: Eleusine indica
Method in brief: as §1

[4] = test system: Abutilon theophrasti
Method in brief: as §1

[5] = test system: Digitaria sanguinalis
Method in brief: as §1

[6] = test system: Echinochloa crusgalli
Method in brief: as §1

Structure (SMILES) | Weeding effect in post-emergence stage, Setaria viridis (level) ([1]; Dose 15 g/ha) | Weeding effect in post-emergence stage, Alopecurus japonicus (level) ([2]; Dose 15 g/ha) | Weeding effect in post-emergence stage, Eleusine indica (level) ([3]; Dose 15 g/ha) | Weeding effect in post-emergence stage, Abutilon theophrasti (level) ([4]; Dose 15 g/ha) | Weeding effect in post-emergence stage, Digitaria sanguinalis (level) ([5]; Dose 15 g/ha) | Weeding effect in post-emergence stage, Echinochloa crusgalli (level) ([6]; Dose 15 g/ha) | other results
CC(=NOC(=O)C(C)ON=Cc1cc(-n2c(=O)cc(C(F)(F)F)n(C)c2=O)c(F)cc1Cl)C1CC1 (stereo not drawn) [Compound 450] | 5 (Level 5: growth control rate is above 85%) | 5 (Level 5: growth control rate is above 85%) | 5 (Level 5: growth control rate is above 85%) | 5 (Level 5: growth control rate is above 85%) | 5 (Level 5: growth control rate is above 85%) | 5 (Level 5: growth control rate is above 85%) | 
CC(=NC(=O)C(C)ON=Cc1cc(-n2c(=O)cc(C(F)(F)F)n(C)c2=O)c(F)cc1Cl)c1ccccc1 (stereo not drawn) [Compound 453] |  |  |  |  |  |  | Weeding effect in post-emergence stage, Setaria viridis (level) ([1]; Dose 30 g/ha): 5 (Level 5: growth control rate is above 85%); Weeding effect in post-emergence stage, Alopecurus japonicus (level) ([2]; Dose 30 g/ha): 5 (Level 5: growth control rate is above 85%); Weeding effect in post-emergence stage, Eleusine indica (level) ([3]; Dose 30 g/ha): 5 (Level 5: growth control rate is above 85%); Weeding effect in post-emergence stage, Abutilon theophrasti (level) ([4]; Dose 30 g/ha): 5 (Level 5: growth control rate is above 85%); Weeding effect in post-emergence stage, Digitaria sanguinalis (level) ([5]; Dose 30 g/ha): 5 (Level 5: growth control rate is above 85%); Weeding effect in post-emergence stage, Echinochloa crusgalli (level) ([6]; Dose 30 g/ha): 5 (Level 5: growth control rate is above 85%)
CC(O/N=C/c1cc(-n2c(=O)cc(C(F)(F)F)n(C)c2=O)c(F)cc1Cl)C(=O)N1CCOCC1 (stereo not drawn) [Compound 454] |  |  |  |  |  |  | Weeding effect in post-emergence stage, Setaria viridis (level) ([1]; Dose 60 g/ha): 5 (Level 5: growth control rate is above 85%); Weeding effect in post-emergence stage, Alopecurus japonicus (level) ([2]; Dose 60 g/ha): 5 (Level 5: growth control rate is above 85%); Weeding effect in post-emergence stage, Eleusine indica (level) ([3]; Dose 60 g/ha): 5 (Level 5: growth control rate is above 85%); Weeding effect in post-emergence stage, Abutilon theophrasti (level) ([4]; Dose 60 g/ha): 5 (Level 5: growth control rate is above 85%); Weeding effect in post-emergence stage, Digitaria sanguinalis (level) ([5]; Dose 60 g/ha): 5 (Level 5: growth control rate is above 85%); Weeding effect in post-emergence stage, Echinochloa crusgalli (level) ([6]; Dose 60 g/ha): 5 (Level 5: growth control rate is above 85%)
COC(=O)CCCO/N=C/c1cc(-n2c(=O)cc(C(F)(F)F)n(C)c2=O)c(F)cc1Cl [Compound 485] | 5 (Level 5: growth control rate is above 85%) | 5 (Level 5: growth control rate is above 85%) | 5 (Level 5: growth control rate is above 85%) | 5 (Level 5: growth control rate is above 85%) | 5 (Level 5: growth control rate is above 85%) | 5 (Level 5: growth control rate is above 85%) | 
CCOC(=O)C(CC(F)(F)F)O/N=C/c1cc(-n2c(=O)cc(C(F)(F)F)n(C)c2=O)c(F)cc1Cl (stereo not drawn) [Compound 486] | 5 (Level 5: growth control rate is above 85%) | 5 (Level 5: growth control rate is above 85%) | 5 (Level 5: growth control rate is above 85%) | 5 (Level 5: growth control rate is above 85%) | 5 (Level 5: growth control rate is above 85%) | 5 (Level 5: growth control rate is above 85%) | 
C=CCC(O/N=C/c1cc(-n2c(=O)cc(C(F)(F)F)n(C)c2=O)c(F)cc1Cl)C(=O)OC (stereo not drawn) [Compound 487] | 5 (Level 5: growth control rate is above 85%) | 5 (Level 5: growth control rate is above 85%) | 5 (Level 5: growth control rate is above 85%) | 5 (Level 5: growth control rate is above 85%) | 5 (Level 5: growth control rate is above 85%) | 5 (Level 5: growth control rate is above 85%) | 
COC(=O)C(O/N=C/c1cc(-n2c(=O)cc(C(F)(F)F)n(C)c2=O)c(F)cc1Cl)C1CCC1 (stereo not drawn) [Compound 488] | 5 (Level 5: growth control rate is above 85%) | 5 (Level 5: growth control rate is above 85%) | 5 (Level 5: growth control rate is above 85%) | 5 (Level 5: growth control rate is above 85%) | 5 (Level 5: growth control rate is above 85%) | 5 (Level 5: growth control rate is above 85%) | 
COC(=O)C(O/N=C/c1cc(-n2c(=O)cc(C(F)(F)F)n(C)c2=O)c(F)cc1Cl)C1CCCC1 (stereo not drawn) [Compound 489] | 5 (Level 5: growth control rate is above 85%) | 5 (Level 5: growth control rate is above 85%) | 5 (Level 5: growth control rate is above 85%) | 5 (Level 5: growth control rate is above 85%) | 5 (Level 5: growth control rate is above 85%) | 5 (Level 5: growth control rate is above 85%) | 
COC(=O)C(O/N=C/c1cc(-n2c(=O)cc(C(F)(F)F)n(C)c2=O)c(F)cc1Cl)C1CCCCC1 (stereo not drawn) [Compound 490] | 5 (Level 5: growth control rate is above 85%) | 5 (Level 5: growth control rate is above 85%) | 5 (Level 5: growth control rate is above 85%) | 5 (Level 5: growth control rate is above 85%) | 5 (Level 5: growth control rate is above 85%) | 5 (Level 5: growth control rate is above 85%) | 
CCSC(=O)C(C)O/N=C/c1cc(-n2c(=O)n(C)c(=O)n(C)c2=O)c(F)cc1Cl (stereo not drawn) [Compound 491] | 5 (Level 5: growth control rate is above 85%) | 5 (Level 5: growth control rate is above 85%) | 5 (Level 5: growth control rate is above 85%) | 5 (Level 5: growth control rate is above 85%) | 5 (Level 5: growth control rate is above 85%) | 5 (Level 5: growth control rate is above 85%) | 
COC(=O)C(OC)O/N=C/c1cc(-n2c(=O)cc(C(F)(F)F)n(C(OC)C(=O)OC)c2=O)c(F)cc1Cl (stereo not drawn) [Compound 493] | 5 (Level 5: growth control rate is above 85%) | 5 (Level 5: growth control rate is above 85%) | 5 (Level 5: growth control rate is above 85%) | 5 (Level 5: growth control rate is above 85%) | 5 (Level 5: growth control rate is above 85%) | 5 (Level 5: growth control rate is above 85%) | 
COC(=O)C(OC)(OC)O/N=C/c1cc(-n2c(=O)cc(C(F)(F)F)n(C)c2=O)c(F)cc1Cl [Compound 494] | 5 (Level 5: growth control rate is above 85%) | 5 (Level 5: growth control rate is above 85%) | 5 (Level 5: growth control rate is above 85%) | 5 (Level 5: growth control rate is above 85%) | 5 (Level 5: growth control rate is above 85%) | 5 (Level 5: growth control rate is above 85%) | 
CC(O/N=C/c1cc(-n2c(=O)cc(C(F)(F)F)n(C)c2=O)c(F)cc1Cl)C(=O)OCc1ccc(Cl)nc1 (stereo not drawn) [Compound 495] | 5 (Level 5: growth control rate is above 85%) | 5 (Level 5: growth control rate is above 85%) | 5 (Level 5: growth control rate is above 85%) | 5 (Level 5: growth control rate is above 85%) | 5 (Level 5: growth control rate is above 85%) | 5 (Level 5: growth control rate is above 85%) | 
COC(=O)C(CCO)O/N=C/c1cc(-n2c(=O)cc(C(F)(F)F)n(C)c2=O)c(F)cc1Cl (stereo not drawn) [Compound 496] | 5 (Level 5: growth control rate is above 85%) | 5 (Level 5: growth control rate is above 85%) | 5 (Level 5: growth control rate is above 85%) | 5 (Level 5: growth control rate is above 85%) | 5 (Level 5: growth control rate is above 85%) | 5 (Level 5: growth control rate is above 85%) | 
COC(=O)C(CCCl)O/N=C/c1cc(-n2c(=O)cc(C(F)(F)F)n(C)c2=O)c(F)cc1Cl (stereo not drawn) [Compound 497] | 5 (Level 5: growth control rate is above 85%) | 5 (Level 5: growth control rate is above 85%) | 5 (Level 5: growth control rate is above 85%) | 5 (Level 5: growth control rate is above 85%) | 5 (Level 5: growth control rate is above 85%) | 5 (Level 5: growth control rate is above 85%) | 
